The values that follow come from patent US12702135B2, “Mitigation of ammonia, odor and greenhouse gases” (Syddansk Universitet, priority 2019, dated 2026).

For data set [1], the system named is pig manure slurry. Nature of the data set: total ammoniacal nitrogen (Kjeldahl) in fresh pig manure slurry. The procedure:
Total ammoniacal nitrogen (TAN) was measured in pig manure slurry using the Kjeldahl method. This method consists of adding 32% NaOH to the manure slurry sample in order to turn all NH4^+ in the sample to NH3. The sample is then heated in a closed system causing the NH3 to evaporate into a trap containing H3BO3 forming NH4[B(OH)4]. The remaining acid is then back-titrated with dilute HCl to give the concentration.
(§1) The pig manure slurry was made fresh on the day of measurement by mixing 10 g of feces with 30 ml of urine. Vials of approximately 4.5 ml of manure slurry were prepared. To each vial 0.5 ml of appropriate amounts of inhibitors were added. Controls were vials of 4.5 ml manure slurry with 0.5 ml H2O. After mixing inhibitors and pig manure slurry the vials were sealed and incubated at 25° C. with shaking for 5 h. After incubation, the ureolysis reaction was rapidly quenched by addition of 8 ml 32% NaOH before the sample was transferred to the Kjeldahl instrument for measurements.
Total ammoniacal nitrogen (TAN) was measured in pig manure slurry using the Kjeldahl method. This method consists of adding 32% NaOH to the manure sample in order to turn all NH4^+ in the sample to NH3. The sample is then heated in a closed system causing the NH3 to evaporate into a trap containing H3BO3 forming NH4[B(OH)4]. The remaining acid is then back-titrated with dilute HCl to give the concentration.
as §1, with “of either 30 mM TA and 10 mM NaF or 50 mM TA and 10 mM NaF was added. Vials containing 0.5 ml” for “of appropriate amounts”, “of either 51 mg/ml MTA (equal to 30 mM TA on a mass basis) or 85 mg/ml MTA (equal to 50 mM TA on a mass basis) with 10 mM TA and 10 mM NaF” for “of inhibitors”, “were also prepared.” for “were added.”, “ml H2O or 10 mM NaF.” for “ml H2O.”
The pig manure slurry was made fresh on the day of measurement by mixing 10 g of feces with 30 ml of urine. Manure separation was simulated by mixing 10 g of feces with 60 ml of urine for a ratio of 1:6 w:V.
For the “normal” ratio or unseparated manure slurry (1:3) 4.5 ml manure was placed in vials. Then 0.5 ml of TA (50 mM) and NaF (10 mM) were added to the manure slurry. For the separated manure slurry (1:6) 4.5 ml were mixed with 0.5 ml of TA (25 mM) and NaF (10 mM).
Controls were vials of 4.5 ml manure slurry with 0.5 ml H2O at either 1:3 or 1:6 w:V ratios of feces:urine. After mixing inhibitors and pig manure slurry the vials were sealed and incubated at 25° C. with shaking for 5 h. After incubation, the ureolysis reaction was rapidly quenched by addition of 8 ml 32% NaOH before the sample was transferred to the Kjeldahl instrument for measurements.
Tannic acid (TA), sodium fluoride (NaF), chlorogenic acid (CA), lignosulfonic acid (LA), lignin (L), chitosan low molecular weight (CLMW), NaOH, HCl and H3BO3 were purchased from Sigma-Aldrich. The mixed tannins (75% tannins) used in this study (VINOFERM TANNOROUGE) were purchased from Brouwland. The product contains tannins from chestnut. The green tea extract was purchased from Slimming Labs (Groeningen, Netherlands) and consists of 90% polyphenols of which 40% are epigallocatechin gallate. Total ammoniacal nitrogen (TAN) was measured in pig manure slurry using the Kjeldahl method as described in example 2 and example 7. The various compounds were tested as described for MTA in example 7 using appropriate concentrations.
Initial screenings were done in duplicate and the results are given as the average of the two measurements with no standard deviation (SD). […]

A further data set has as its system Klebsiella pneumoniae. Nature of the data set: pH-based urease activity assay, pure K. pneumoniae culture in M9U minimal medium. Type of data set: cell-based, Klebsiella pneumoniae subsp. pneumoniae. As to conditions: for Reduction in ureolytic activity: pure K. pneumonia culture. The procedure: (§2) The urease stock was stored at −20° C.
All M9U components except glucose, urea, FeCl2, ZnSO4, and vitamins were mixed, the pH adjusted to 6.8 and the medium was autoclaved. Glucose, urea, FeCl2, ZnSO4, and BME Vitamin solution were sterile-filtered and added aseptically after autoclaving. Urea was added within 24 h before the medium was used.
(§3) The assay consists of a buffered urea solution containing the pH indicator phenol red and the inhibitor to be tested. […] Each compound was screened at three concentrations (10×, 100× and 1000× dilutions of the stock) in triplicate against K. pneumoniae and purified JBU. To this solution ureolytic bacteria or urease is added and the solution is incubated in a plate reader which every 15 minutes measure the absorbance at 557 nm and 630 nm (A557 and A630). Thus, inhibitor and bacteria/urease was not pre-incubated. For microbial urease activity experiments, K. pneumoniae and E. coli were grown overnight in the respective growth media. […] To each well 80 μl bacterial suspension, 100 μl growth media, and 20 μl inhibitor solution was added. Increase in absorbance at 557 nm reflects increasing pH (until saturation of the indicator at pH 8.2) and increase in absorbance at 630 nm reflects bacterial growth (optical density). In the case of ureolytic bacteria or enzymes in urea solution the increase in pH can be ascribed to the production of alkaline NH3. […] In the bacterial assay inhibitors were evaluated based on three parameters: maximal or final pH increase, onset of pH increase and rate of pH increase. The relative maximal pH increase was determined as pHmax=A557-A630. The onset of the pH increase was defined as the point where the ureolytic production of NH3 overcame the buffer capacity resulting in a colour change of the phenol red indicator measured as an absorbance increase at 557 nm. […] For each inhibitor the influence on the bacterial growth was also evaluated by identifying the end of the lag phase (onset of exponential growth), the growth rate and the maximal OD630.

For another data set, the target named is T1, jack bean urease (Canavalia ensiformis, UniProt P07374).
T1 construct: purchased Sigma-Aldrich
Nature of the data set: cell-free urease activity assay (pH-based). Type of data set: biochemical. The procedure: as §2, §3
In urease inhibition assays 5 μl enzyme solution, 175 μl growth media, and 20 μl inhibitor solution were added.

The subject of data set [2] is pig manure slurry. The data set is described as follows: headspace ammonia emissions from pig manure slurry (PTR-MS). The following applies: Tannic acid 10 mM; cumulated headspace emission, 22-24° C. The procedure: Ammonia emissions were measured in headspace experiments at ambient temperature (22-24° C.). Pig urine (30 ml) and 10 g of frozen pig feces were thawed and added to each of nine 100 mL reactors and mixed with tannic acid and sodium fluoride in different concentrations. Tannic acid and sodium fluoride was purchased from Sigma-Aldrich. A flow of 0.5 L±10% air/min was continuously applied to the headspace of each reactor with mass flow controllers (Bronkhorst EL-FLOW, Ruurlo, Netherlands). The air flow carried the emitted ammonia from the pig manure slurry in the reactors to a proton transfer reaction mass spectrometer (PTR-MS) (Ionicon Analytik, Innsbruck, Austria) for quantification. A PEEK valve (Bio-Chem Valve Inc., Boonton, NJ, USA) was used to switch between the nine reactors every 12 min. The PTR-MS was operated at a reduced electric field of 142 Townsend (2.15 mbar and 75° C. in the drift tube). Every 24 h, 3 ml of pig urine and 1 g of pig feces was thawed and supplemented to the reactors. Tannic acid and sodium fluoride was also supplemented every 24 h to maintain a constant inhibitor concentration in the manure. For acidification treatment, the manure slurry was acidified with H2SO4 to pH 5.5 every 24 h. The gas emissions were monitored continuously for 12 days. […]

For data set [3] the following is noted: weak acidity due to the numerous phenol groups; cited from earlier work.
In data set [4] the test system is 12 days old pig manure slurry. Nature of the data set: methane production in anaerobic inoculum flasks (GC-FID). As to conditions: 10 mM TA alone, 3 weeks. How it is done: This was done by transferring the TA-NaF treated manure slurry used in example 3 to 100 mL inoculum flasks on day 12. The manure slurry was weighed before inoculation and the headspace was flushed with helium (Linde Group) prior to encapsulation. Gas from the headspace of the inoculum flasks was sampled into 6 mL vacuum sealed exetainer vials (Labco Limited, Lampeter, UK) every week the following three weeks and stored for later CH4 analysis on a GC-FID. After sampling from the inoculum flasks, the pressure in the headspace was equalized with a needle.

“And” between values parts separate entries of the source, which are not always exact repeats. Identical values can stand only once.

T1 sequence (P07374 whole entry, looked up): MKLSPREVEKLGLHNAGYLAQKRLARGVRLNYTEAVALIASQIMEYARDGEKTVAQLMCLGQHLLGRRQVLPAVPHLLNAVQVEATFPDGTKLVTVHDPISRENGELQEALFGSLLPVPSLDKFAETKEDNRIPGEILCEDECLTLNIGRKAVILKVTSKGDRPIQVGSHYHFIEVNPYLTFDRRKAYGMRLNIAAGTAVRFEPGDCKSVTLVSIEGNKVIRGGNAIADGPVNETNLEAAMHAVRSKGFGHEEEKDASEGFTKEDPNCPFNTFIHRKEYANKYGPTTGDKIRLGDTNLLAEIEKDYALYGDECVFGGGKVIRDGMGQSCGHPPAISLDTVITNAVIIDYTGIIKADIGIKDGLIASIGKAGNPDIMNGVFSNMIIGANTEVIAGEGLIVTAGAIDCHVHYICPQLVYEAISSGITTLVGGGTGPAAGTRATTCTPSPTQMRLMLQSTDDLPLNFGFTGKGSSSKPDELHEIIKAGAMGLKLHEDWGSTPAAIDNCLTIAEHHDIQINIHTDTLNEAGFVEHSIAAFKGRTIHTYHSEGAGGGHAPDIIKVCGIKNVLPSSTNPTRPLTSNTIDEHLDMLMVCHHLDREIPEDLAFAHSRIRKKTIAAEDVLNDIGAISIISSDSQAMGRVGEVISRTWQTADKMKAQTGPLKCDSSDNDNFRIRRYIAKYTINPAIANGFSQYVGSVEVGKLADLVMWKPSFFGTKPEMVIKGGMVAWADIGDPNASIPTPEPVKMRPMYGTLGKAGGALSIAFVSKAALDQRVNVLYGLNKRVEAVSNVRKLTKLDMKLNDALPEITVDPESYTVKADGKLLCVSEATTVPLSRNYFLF

With `NCCS` [Cysteamine], the “Reduction in ammonia production” value with pig manure slurry [1] (Cysteamine 1 mM, pig manure slurry, 25° C., 5 h) is given as 25%.

In the case of `O=C(/C=C/c1ccc(O)c(O)c1)O[C@@H]1C[C@](O)(C(=O)O)C[C@@H](O)[C@H]1O` [CA, chlorogenic acid], in the data set with pig manure slurry [1] (CA 5 mM (2.3 mg/ml), pig manure slurry, duplicate, no SD), the “Reduction in ammonia production (Mean ± SD)” value (shortened to “Reduction … (Mean ± SD)”) came out at 6%.

In the data set on Klebsiella pneumoniae (0.3 mM fluoride alone), `[F-].[Na+]` [NaF, sodium fluoride] gave an inhibition of ureolysis of 14.7%. Further, the “ureolytic activity (pH change) relative to the uninhibited control” value in the data set on Klebsiella pneumoniae (1.0 mM) came to 0. Besides, the “reduction of pH change (FIG. 5)” value in the data set with Klebsiella pneumoniae (NaF 0.3 mM) is 12-15%. The “reduction in initial rate of pH change” value at jack bean urease (1.0 mM) came to 89.4±1.0%. For the same compound, the “reduction of pH change” value on jack bean urease (1.0 mM) came out at 80.6±3.0%. Further, the “Reduction in concentration of NH3” value in the data set with pig manure slurry [1] (1 mM NaF, pig manure slurry, 25° C., 5 h (Example 7)) was found to be 17.7 ± 4%. For the same compound, the “Reduction … (Mean ± SD)” value in the data set on pig manure slurry [1] (NaF 1 mM, pig manure slurry (Example 10)) was determined as 9 ± 1.0%. In addition, in the data set on pig manure slurry [1] (NaF 1 mM, pig manure slurry (Example 11)), the “Reduction in ammonia production (Mean)” value was 9 ± 1.0%. The “Reduction in ammonia production” value is recorded as 24% in the data set with pig manure slurry [1] (NaF 1 mM, pig manure slurry, 25° C., 5 h (Example 2)) and 8.6% with pig manure slurry [1] (in solution, NaF 1 mM, pig manure slurry, 25° C., 5 h (Example 3)).

As for `O=C(O)CNCC(=O)O` [Iminodiacetic acid], the “Reduction in ammonia production” value in the data set with pig manure slurry [1] (Iminodiacetic acid 0.8 mM, pig manure slurry, 25° C., 5 h) is listed as 19%.

In the case of `CC(=O)NO` [AHA, acetohydroxamic acid], the “Reduction in ureolytic activity” value with Klebsiella pneumoniae (AHA 0.2 mM) is recorded as 14 ± 6%. In addition, the “Reduction in ammonia production (Mean)” value is 14% and 14 ± 2.3% in the data set with pig manure slurry [1] (AHA 0.5 mM, pig manure slurry); 24 ± 3.4% in the data set on pig manure slurry [1] (AHA 1 mM, pig manure slurry).

Consider `O=C(OC[C@H]1O[C@@H](OC(=O)c2cc(O)c(O)c(OC(=O)c3cc(O)c(O)c(O)c3)c2)[C@H](OC(=O)c2cc(O)c(O)c(OC(=O)c3cc(O)c(O)c(O)c3)c2)[C@@H](OC(=O)c2cc(O)c(O)c(OC(=O)c3cc(O)c(O)c(O)c3)c2)[C@@H]1OC(=O)c1cc(O)c(O)c(OC(=O)c2cc(O)c(O)c(O)c2)c1)c1cc(O)c(O)c(OC(=O)c2cc(O)c(O)c(O)c2)c1` [Tannic acid, tannic acid], for which the inhibition at 1000 µM with Klebsiella pneumoniae (Klebsiella pneumoniae, 1.0 mM, read-out: reduction of ureolytic activity (pH change) relative to uninhibited control) worked out at 21.3 ± 1.3%. In addition, the “Reduction in ureolytic activity” value is 16% and 16 ± 5% in the data set with Klebsiella pneumoniae (TA 0.05 mM, listed as TA); 9.4 ± 3% with Klebsiella pneumoniae (TA 0.1 mM); 3.9 ± 6% in the data set on Klebsiella pneumoniae (TA 0.2 mM). Moreover, in the data set with Klebsiella pneumoniae (tannic acid 0-0.8 mM alone), the “inhibition of ureolytic activity” value was 0-12%. The “ureolytic pH change compared to the uninhibited control (FIG. 5)” value with Klebsiella pneumoniae (tannic acid alone up to 0.8 mM) is reported as “does not reduce the pH change significantly”. The “Reduction in ammonia emissions, 12 days” value in the data set with pig manure slurry [2] came to 88.4%. For the same compound, the pKa result in data set [3] is on record as “around 6”. Also, the “methane production, % of the uninhibited control (FIG. 3B)” value in data set [4] is 0.01%. For the same compound, the “pH change (reduced to)” value on jack bean urease (0.1 mM) stood at 0. The “Reduction in ammonia production (Mean)” value in the data set on pig manure slurry [1] (TA 3 mM, pig manure slurry (Example 11)) came out at 0 ± 4%; in the data set on pig manure slurry [1] (TA 5 mM, pig manure slurry (Example 11)), 18 ± 1.3%. In addition, the “Reduction … (Mean ± SD)” value in the data set with pig manure slurry [1] (TA 5 mM (8.5 mg/ml), pig manure slurry (Example 10)) was found to be 18 ± 1.3%. For the same compound, the “Reduction in ammonia production” value in the data set with pig manure slurry [1] (Tannic acid 10 mM, pig manure slurry, 25° C., 5 h (Example 2)) is 17.6%^; with pig manure slurry [1] (in solution, Tannic acid 5 mM, pig manure slurry, 25° C., 5 h (Example 3)), 17.6%; with pig manure slurry [1] (in solution, Tannic acid 10 mM, pig manure slurry, 25° C., 5 h (Example 3)), 35.2%.

For the compound `O=C1C=CC(=O)N1c1ccccc1` [N-phenylmaleimide], the “Reduction in ammonia production” value in the data set on pig manure slurry [1] (N-phenylmaleimide 3.9 mM, pig manure slurry, 25° C., 5 h) came to 59%.
